The results in this text go back to ChEMBL document CHEMBL1136090, “Discovery of a potent and selective series of pyrazole bacterial methionyl-tRNA synthetase inhibitors” (Bioorg Med Chem Lett, 2003).

The target of assay [1] is T1, Methionine--tRNA ligase, cytoplasmic (Homo sapiens, UniProt P56192).
T1 sequence (P56192 whole entry): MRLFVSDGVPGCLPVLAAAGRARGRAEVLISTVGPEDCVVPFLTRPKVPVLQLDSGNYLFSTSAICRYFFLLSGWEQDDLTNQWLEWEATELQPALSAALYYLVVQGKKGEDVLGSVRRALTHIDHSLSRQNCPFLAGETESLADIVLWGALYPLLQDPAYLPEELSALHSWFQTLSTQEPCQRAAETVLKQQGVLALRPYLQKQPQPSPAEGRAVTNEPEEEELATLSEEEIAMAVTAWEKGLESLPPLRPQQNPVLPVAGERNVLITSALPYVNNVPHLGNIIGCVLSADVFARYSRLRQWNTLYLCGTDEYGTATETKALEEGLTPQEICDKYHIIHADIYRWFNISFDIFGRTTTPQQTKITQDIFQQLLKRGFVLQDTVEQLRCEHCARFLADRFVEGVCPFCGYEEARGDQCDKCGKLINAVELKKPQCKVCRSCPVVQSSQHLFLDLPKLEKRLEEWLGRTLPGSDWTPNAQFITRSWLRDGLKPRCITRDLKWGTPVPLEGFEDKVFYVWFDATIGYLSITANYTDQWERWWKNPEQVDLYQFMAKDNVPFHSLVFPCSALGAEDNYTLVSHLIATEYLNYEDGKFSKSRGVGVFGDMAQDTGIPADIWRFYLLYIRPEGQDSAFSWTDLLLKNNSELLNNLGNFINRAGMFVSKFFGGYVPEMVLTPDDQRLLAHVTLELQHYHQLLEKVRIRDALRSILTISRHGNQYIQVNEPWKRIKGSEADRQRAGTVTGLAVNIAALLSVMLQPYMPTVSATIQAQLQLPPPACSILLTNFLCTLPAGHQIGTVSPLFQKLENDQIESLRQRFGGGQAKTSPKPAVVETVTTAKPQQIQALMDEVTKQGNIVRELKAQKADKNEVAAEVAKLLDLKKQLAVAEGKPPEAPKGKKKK
Briefly: Inhibitory activity against human methionyl-tRNA synthetase (hMetRS).

In assay [2] the test system is Staphylococcus aureus subsp. aureus MW2. In words: Selectivity ratio for inhibition of human Methionyl-tRNA synthetase to that of Staphylococcus aureus Methionyl-tRNA synthetase.

The IC50 is the concentration that gives 50% inhibition. Lower therefore signals higher potency.

For `O=C(O)c1cc(-c2ccc(-c3ccc(Cl)cc3Cl)cc2)n(-c2cccnc2)n1`, the midpoint of inhibition in assay [1], the IC50, lay at 47 µM. In addition, in assay [2], the Ratio is 157.

As for `O=C(O)c1cc(-c2ccc(-c3ccc(C(F)(F)F)cc3)cc2)n(-c2ccc(Cl)cc2Cl)n1`, the IC50 in assay [1] amounted to 33.5 µM. In addition, the Ratio in assay [2] stood at 1.

`O=C(O)c1cc(-c2ccc(-c3ccc(Cl)cc3Cl)cc2)n(-c2ccccn2)n1`: the half-inhibitory concentration (IC50) in assay [1] is more than 100 µM. For the same molecule, in assay [2], the Ratio was more than 159.

`Clc1ccc(-c2ccc(-c3cc(-c4nnn[nH]4)nn3-c3cccnc3)cc2)c(Cl)c1` yielded an IC50 in assay [1] of 10.6 µM. In addition, the Ratio in assay [2] was found to be 82.

In the case of `CCn1nc(C(=O)O)cc1-c1ccc(-c2ccc(Cl)cc2Cl)cc1`, 46.4 µM corresponded to half-maximal inhibition in assay [1] (IC50). Further, the Ratio in assay [2] turned out to be 45.

`O=C(O)c1cccc(-c2ccc(-c3cc(C(=O)O)nn3-c3ccc(Cl)cc3Cl)cc2)c1` displayed an IC50 in assay [1] of 40.9 µM. For the same molecule, the Ratio in assay [2] was 1.

On to `O=C(O)c1cc(-c2ccc(-c3ccc(Cl)cc3Cl)cc2)nn1Cc1ccccn1`, for which, in assay [1], half-maximal inhibition (IC50) required 22.3 µM. In addition, the Ratio in assay [2] amounted to 8.

`O=C(O)c1cc(-c2ccc(-c3ccccc3)cc2)n(-c2ccc(Cl)cc2Cl)n1` showed an IC50 in assay [1] of 44.3 µM. In addition, the Ratio in assay [2] stood at 1.

The molecule `O=C(O)c1cc(-c2ccc(-c3ccc(Cl)cc3Cl)cc2)n(-c2ccc(Cl)cc2Cl)n1` showed an IC50 in assay [1] of 11.9 µM. For the same molecule, the Ratio in assay [2] came to 2.

On to `O=C(O)c1cc(-c2ccc(-c3ccc(F)c(Cl)c3)cc2)n(-c2ccc(Cl)cc2Cl)n1`, for which it took 20.9 µM to reach half-maximal inhibition in assay [1] (IC50). The Ratio in assay [2] came out at 1.

`O=C(O)c1cc(-c2ccc(-c3ccc(F)cc3)cc2)n(-c2ccc(Cl)cc2Cl)n1` had a concentration for half-maximal inhibition (IC50) in assay [1] of 41.3 µM. Further, the Ratio in assay [2] came out at 1.

In turn, `O=C(O)c1cc(-c2ccc(-c3ccc(Cl)cc3Cl)cc2)n(CCO)n1` had an IC50 in assay [1] of more than 100 µM. The Ratio in assay [2] is more than 22.

In assay [1], `O=C(NCc1nn[nH]n1)c1cc(-c2ccc(-c3ccc(Cl)cc3Cl)cc2)n(-c2cccnc2)n1` returned an IC50 of 13.8 µM. Besides, the Ratio in assay [2] came out at 106.

For the molecule `NC(=O)c1cc(-c2ccc(-c3ccc(Cl)cc3Cl)cc2)n(-c2ccccn2)n1`, the IC50 in assay [1] is more than 100 µM. The Ratio in assay [2] is more than 34.

With `COc1ccc(-n2nc(C(=O)O)cc2-c2ccc(-c3ccc(Cl)cc3Cl)cc2)cc1`, the IC50 in assay [1] is more than 100 µM. In assay [2], the Ratio is more than 10.

`O=C(O)c1cc(-c2ccc(-c3ccc(Cl)cc3Cl)cc2)n(Cc2cccnc2)n1` displayed an IC50 in assay [1] of more than 100 µM. The Ratio in assay [2] is more than 152.

Turning to `O=C(O)c1cc(-c2ccc(-c3ccc(Cl)cc3Cl)cc2)n(Cc2ccncc2)n1`, in assay [1], inhibition was half-maximal at 26.2 µM (IC50). Further, the Ratio in assay [2] came to 52.

`O=C(O)Cn1nc(C(=O)O)cc1-c1ccc(-c2ccc(Cl)cc2Cl)cc1` returned an IC50 in assay [1] of 100 µM. Further, in assay [2], the Ratio was found to be 29.
